# ChEMBL document CHEMBL3853337, “Synthesis and P1' SAR exploration of potent macrocyclic tissue factor-factor VIIa inhibitors” (Bioorg Med Chem Lett, 2016)
# Experiments:
# [1] = Inhibition of trypsin (unknown origin) at 25 degC by chromogenic substrate assay; design: species or system Homo sapiens
# Coagulation factor X = Coagulation factor X (Homo sapiens, UniProt P00742); assay: Inhibition of factor 10a (unknown origin) at 25 degC by chromogenic substrate assay
# [2] = Permeability of the compound at pH 7.4 by PAMPA assay; assay type: ADME; details: read-out: permeability
# [3] = Permeability of the compound at pH 5.5 by PAMPA assay; assay type: ADME; details: read-out: permeability
# [4] = target: T1, Coagulation factor VII/tissue factor (Homo sapiens, UniProt P08709); assay: Inhibition of recombinant human TF-factor 7a using factor 10 as substrate at 37 degC; assay type: protein-complex assay
# Prothrombin = Prothrombin (Homo sapiens, UniProt P00734); assay: Inhibition of thrombin (unknown origin) at 25 degC by chromogenic substrate assay
# [5] = Clearance in iv dosed dog; assay type: ADME, organism-based, Canis lupus familiaris; details: in vivo
# Kallikrein-1 = Kallikrein-1 (Homo sapiens, UniProt P06870); assay: Inhibition of human kallikrein1 at 37 degC by chromogenic substrate assay
# [6] = Anticlotting activity in human factor 7 immunodepleted plasma mixed with normal pooled plasma from different species assessed compound causing 2 times increase in prothrombin time after 3 mins relative to baseline control; assay type: functional
# [7] = Half-life in human liver microsomes; assay type: ADME
# [8] = Fraction unbound in human plasma; assay type: ADME, cell-free
# [9] = Oral bioavailability in iv dosed dog; assay type: ADME, organism-based, Canis lupus familiaris; details: in vivo
# [10] = target: Vitamin K-dependent protein C (Homo sapiens, UniProt P04070); assay: Inhibition of activated protein C (unknown origin) at 37 degC by chromogenic substrate assay
# [11] = Oral bioavailability in Beagle dog; assay type: ADME, organism-based, Canis lupus familiaris; details: in vivo
# [12] = Clearance in po or iv dosed Beagle dog by LC-MS/MS analysis; assay type: ADME, organism-based, Canis lupus familiaris; details: in vivo
# [13] = Half life in Beagle dog liver microsomes at 3 uM by LC-MS/MS analysis; assay type: ADME, Canis lupus familiaris
# [14] = Metabolic stability in human liver microsomes assessed as compound remaining after 10 mins; assay type: ADME; details: read-out: Stability
# Homo sapiens [15] = species on record: Homo sapiens; assay: Selectivity ratio of Ki for human kallikrein1 to Ki for recombinant human TF-factor 7a
# [16] = Permeability from basolateral to apical side in human Caco2 cells; assay type: ADME, cell-based; details: Caco-2, read-out: permeability
# [17] = Permeability from apical to basolateral side in human Caco2 cells; assay type: ADME, cell-based; details: Caco-2, read-out: permeability
# [18] = target: T1, Coagulation factor VII/tissue factor; assay: Inhibition of human TF-factor 7a ([…] residues) using factor 10 as substrate after 60 mins; assay type: protein-complex assay
# Homo sapiens [19] = species on record: Homo sapiens; assay: Selectivity ratio of Ki for thrombin (unknown origin) to Ki for human factor 7a ([…] residues)
# Homo sapiens [20] = species on record: Homo sapiens; assay: Selectivity ratio of Ki for factor 10a (unknown origin) to Ki for human factor 7a ([…] residues)
# Homo sapiens [21] = species on record: Homo sapiens; assay: Selectivity ratio of Ki for trypsin (unknown origin) to Ki for human factor 7a ([…] residues)
# Homo sapiens [22] = species on record: Homo sapiens; assay: Selectivity ratio of Ki for factor 9a (unknown origin) to Ki for human factor 7a ([…] residues)
Ki [1],Ki (Coagulation factor X),Papp [2],Papp [3],Ki [4],Ki (Prothrombin),clearance [5],Ki (Kallikrein-1),half-life [7],fraction unbound [8],Ki [10],SMILES,EC [6],further results
4.9 µM,1.05 µM,4.8 ×10⁻⁶ cm/s,11.9 ×10⁻⁶ cm/s,720 pM,> 13.3 µM,7 mL/min/kg,0.96 µM,1.9 h,0.018,0.175 µM,Cc1cc2ccc1[C@@H](C)COC(=O)Nc1ccc(C3(c4nnn[nH]4)CC3)c(c1)CN(C)C(=O)[C@@H]2Nc1ccc2c(N)ncc(F)c2c1,10 µM,bioavailability [9]: 2%
–,–,–,–,–,–,–,–,–,–,–,Cc1cc2ccc1[C@@H](C)COC(=O)Nc1ccc(S(=O)(=O)C3CC3)c(c1)CN(C)C(=O)[C@@H]2Nc1ccc2c(N)nccc2c1,1.1 µM,bioavailability [11]: 1%; clearance [12]: 29 mL/min/kg; half-life at 3 µM [13]: 1.77 h
2.75 µM,6.65 µM,11.7 ×10⁻⁶ cm/s,33.7 ×10⁻⁶ cm/s,–,> 13.3 µM,–,–,–,0.044,0.07 µM,Cc1cc2ccc1[C@@H](C)COC(=O)Nc1ccc(C3(C(=O)O)CC3)c(c1)CN(C)C(=O)[C@@H]2Nc1ccc2c(N)ncc(F)c2c1,4.7 µM,remaining at 10 min [14]: 100%
0.505 µM,0.9 µM,8 ×10⁻⁶ cm/s,80.5 ×10⁻⁶ cm/s,60 pM,> 13.3 µM,–,1.2 µM,1.57 h,0.017,0.155 µM,Cc1cc2ccc1[C@@H](C)COC(=O)Nc1ccc(C3(C(=O)O)CCCCC3)c(c1)CN(C)C(=O)[C@@H]2Nc1ccc2c(N)ncc(F)c2c1,18 µM,–
> 6.2 µM,3 µM,–,–,18000 pM,18 µM,–,0.015 µM,0.383 h,–,0.22 µM,Cc1cc2ccc1[C@@H](C)COC(=O)Nc1ccc(C3CC3)c(c1)CN(C)C(=O)[C@@H]2Nc1ccc2c(N)ncc(F)c2c1,32 µM,Ratio Ki (Homo sapiens [15]): 0.8
2.2 µM,1.8 µM,4 ×10⁻⁶ cm/s,21.1 ×10⁻⁶ cm/s,220 pM,> 13.3 µM,54 mL/min/kg,1.6 µM,–,0.028,0.34 µM,Cc1cc2ccc1[C@@H](C)COC(=O)Nc1ccc(C3(C(=O)O)CCCC3)c(c1)CN(C)C(=O)[C@@H]2Nc1ccc2c(N)ncc(F)c2c1,6.6 µM,–
–,–,–,–,–,–,–,–,–,–,–,Cc1cc2ccc1[C@@H](C)COC(=O)Nc1ccc(C3CC3)c(c1)CN(C)C(=O)[C@@H]2Nc1ccc2c(N)nccc2c1,–,bioavailability [11]: 12%; clearance [12]: 2.2 mL/min/kg; half-life at 3 µM [13]: 3.33 h; Papp B→A [16]: 9.3 ×10⁻⁶ cm/s; Papp A→B [17]: < 1.5 ×10⁻⁶ cm/s; Ki [18]: 0.002 µM
3.4 µM,0.85 µM,3.4 ×10⁻⁶ cm/s,20.9 ×10⁻⁶ cm/s,140 pM,> 13.3 µM,56 mL/min/kg,1.15 µM,> 2 h,0.033,0.725 µM,Cc1cc2ccc1[C@@H](C)COC(=O)Nc1ccc(C3(C(=O)O)CCC3)c(c1)CN(C)C(=O)[C@@H]2Nc1ccc2c(N)ncc(F)c2c1,7.9 µM,–
–,–,–,–,–,–,–,–,–,–,–,CCS(=O)(=O)c1ccc2cc1CNC(=O)[C@H](Nc1ccc3c(N)nccc3c1)c1ccc(c(C)c1)CCOC(=O)N2,1.2 µM,Ratio Ki (Homo sapiens [19]): > 500; Ratio Ki (Homo sapiens [20]): > 500; Ratio Ki (Homo sapiens [21]): > 500; Ratio Ki (Homo sapiens [22]): > 500
> 6.2 µM,1.4 µM,2.1 ×10⁻⁶ cm/s,2.6 ×10⁻⁶ cm/s,4400 pM,> 13.3 µM,–,5.3 µM,> 2 h,0.058,1.6 µM,Cc1cc2ccc1[C@@H](C)COC(=O)Nc1ccc(C3(C(=O)O)CCOCC3)c(c1)CN(C)C(=O)[C@@H]2Nc1ccc2c(N)ncc(F)c2c1,11 µM,–
